The assay concerns the target HPK1 (MAP4K1) (Homo sapiens, UniProt Q92918). The assay can be described thus: FRET Assay for HPK1 (MAP4K1): one step binding assay, displacement of labeled tracer. To be noted: for inhibition at 1 µM: 1 μM compound; for inhibition at 1 µM / inhibition at 10 µM: FRET ratio 665/620, percent of control; for inhibition at 10 µM: 10 μM compound; for IC50: dose response curve, nonlinear regression. The source says:
FRET Assay for HPK1 (MAP4K1):
This is a one step binding assay based on the binding and displacement of the labeled tracer, where compound addition is followed by addition of the anti-GST tagged europium (Eu) as the donor and Alexa Fluor-labeled tracer as the acceptor. Simultaneous binding of both the tracer and GST-antibody to the kinase domain of HPK1 results in a high degree of FRET (fluorescence resonance energy transfer) from the anti-GST tagged europium (Eu) fluorophore to the Alexa Fluor® 647 fluorophore on the kinase tracer and this signal is reduced in presence of the inhibitor that can be measured.
Test compounds or reference compounds such as Sunitinib (Sigma) were dissolved in dimethylsulfoxide (DMSO) to prepare 10.0 mM stock solutions and diluted to the desired concentration. The final concentration of DMSO in the reaction was 3% (v/v). The assay mixture was prepared by mixing 4 nM of the Eu-Anti-GST Antibody and 10 nM MAP4K-1 enzyme in the Kinase buffer containing 50mM HEPES (pH 7.5), 10 mM MgCl2, 1 mM EGTA, 0.01% Brij-35 with or without the desired concentration of the compound. The reaction was incubated on ice for 15 mins. The pre-incubation step was followed by addition of the 20 nM Kinase Tracer 222 into the reaction mixture. After shaking for 5 min the reaction was further incubated for 1 hour at room temperature and this was kept at 4° C. and read on ARTEMIS reader as per the kit instructions (Thermo). […] The activity was calculated as percent of control reaction. IC50 values were calculated from dose response curve by nonlinear regression analysis using GraphPad Prism software.
Percentage inhibition at concentrations of 1.0 μM and 10.0 μM are given in the table along with IC50 (nM) details for selected examples.

HPK1 (MAP4K1), sequence (Q92918 whole entry): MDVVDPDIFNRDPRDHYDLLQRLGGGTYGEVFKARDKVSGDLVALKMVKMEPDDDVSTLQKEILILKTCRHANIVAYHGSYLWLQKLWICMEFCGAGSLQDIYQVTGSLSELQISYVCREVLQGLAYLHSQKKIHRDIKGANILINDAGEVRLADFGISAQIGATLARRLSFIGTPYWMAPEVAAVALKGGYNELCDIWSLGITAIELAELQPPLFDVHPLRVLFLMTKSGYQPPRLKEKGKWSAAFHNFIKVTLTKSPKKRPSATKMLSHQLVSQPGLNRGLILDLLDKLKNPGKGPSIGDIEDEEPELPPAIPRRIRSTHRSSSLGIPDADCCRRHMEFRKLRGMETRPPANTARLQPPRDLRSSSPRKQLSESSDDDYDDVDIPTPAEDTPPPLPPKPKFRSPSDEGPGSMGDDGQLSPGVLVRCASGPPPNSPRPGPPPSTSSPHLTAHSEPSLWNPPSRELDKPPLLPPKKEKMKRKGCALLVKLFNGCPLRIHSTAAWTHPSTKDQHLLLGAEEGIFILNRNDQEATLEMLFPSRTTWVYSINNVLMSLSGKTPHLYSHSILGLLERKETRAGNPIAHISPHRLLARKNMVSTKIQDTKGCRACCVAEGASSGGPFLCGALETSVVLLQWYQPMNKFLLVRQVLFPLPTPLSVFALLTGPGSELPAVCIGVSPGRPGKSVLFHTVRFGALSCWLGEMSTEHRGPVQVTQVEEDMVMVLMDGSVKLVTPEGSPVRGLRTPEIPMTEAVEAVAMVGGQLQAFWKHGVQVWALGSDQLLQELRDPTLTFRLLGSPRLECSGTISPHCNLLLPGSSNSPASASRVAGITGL

`C/C(Nc1cnn(C)c1)=C1/C(=O)Nc2cnc(-c3cncc(F)c3C)cc21` [Example 148, (Z)-5-(5-Fluoro-4-methylpyridin-3-yl)-3-(1-((1-methyl-1H-pyrazol-4-yl)amino)ethylidene)-1H-pyrrolo[2,3-c]pyridin-2(3H)-one]: the inhibition at 1 µM amounted to 82.4%, the inhibition at 10 µM came to 94% and the IC50 is under 50 nM.

Regarding `C/C(Nc1ccc(N2CCN(C3COC3)CC2)nc1)=C1/C(=O)Nc2cnc(-c3cnccc3C)cc21` [Example 77, (Z)-5-(4-Methylpyridin-3-yl)-3-(1-((6-(4-(oxetan-3-yl)piperazin-1-yl)pyridin-3-yl)amino)ethylidene)-1H-pyrrolo[2,3-c]pyridin-2(3H)-one], the inhibition at 1 µM is 73%, the inhibition at 10 µM is 80.3% and the IC50 was under 50 nM.

Take `C/C(Nc1ccn(C2(C#N)CC2)n1)=C1/C(=O)Nc2cnc(-c3cnccc3C)cc21` [Example 102, (Z)-1-(3-((1-(5-(4-Methylpyridin-3-yl)-2-oxo-1H-pyrrolo[2,3-c]pyridin-3(2H)-ylidene)ethyl)amino)-1H-pyrazol-1-yl)cyclopropanecarbonitrile]: the inhibition at 1 µM stood at 81.6%, the inhibition at 10 µM amounted to 89.7% and the IC50 is under 50 nM.

With `C/C(Nc1cnn(C2CCOCC2)c1)=C1/C(=O)Nc2cnc(-c3cnccc3C)cc21` [Example 57, (Z)-5-(4-Methylpyridin-3-yl)-3-(1-((1-(tetrahydro-2H-pyran-4-yl)-1H-pyrazol-4-yl)amino)ethylidene)-1H-pyrrolo[2,3-c]pyridin-2(3H)-one], the inhibition at 1 µM came to 80.9%, the inhibition at 10 µM was determined as 94.1% and the IC50 is under 50 nM.

With `COc1cccc(F)c1-c1cc2c(cn1)NC(=O)/C2=C(/C)Nc1cnn(C2COC2)c1` [Example 27, (Z)-5-(2-Fluoro-6-methoxyphenyl)-3-(1-((1-(oxetan-3-yl)-1H-pyrazol-4-yl)amino)ethylidene)-1H-pyrrolo[2,3-c]pyridin-2(3H)-one], the inhibition at 1 µM is 88.4%, the inhibition at 10 µM came to 96.3% and the IC50 was under 50 nM.

With `C/C(Nc1cc2n(n1)CCOC2)=C1/C(=O)Nc2ccc(-c3cnccc3C)cc21` [Example 193, (Z)-3-(1-((6,7-Dihydro-4H-pyrazolo[5,1-c][1,4]oxazin-2-yl)amino)ethylidene)-5-(4-methylpyridin-3-yl)indolin-2-one], the inhibition at 1 µM worked out at 78.2%, the inhibition at 10 µM was 74.5% and the IC50 is under 50 nM.

`C/C(Nc1ccn(C(F)F)n1)=C1/C(=O)Nc2cnc(-c3cnccc3C)cc21` [Example 81, (Z)-3-(1-((1-(Difluoromethyl)-1H-pyrazol-3-yl)amino)ethylidene)-5-(4-methylpyridin-3-yl)-1H-pyrrolo[2,3-c]pyridin-2(3H)-one]: the inhibition at 1 µM amounted to 73.8%, the inhibition at 10 µM turned out to be 82.2% and the IC50 was under 50 nM.

With `CCn1cc(N/C(C)=C2\C(=O)Nc3cnc(-c4c(F)cccc4OC)cc32)cn1` [Example 29, (Z)-3-(1-((1-Ethyl-1H-pyrazol-4-yl)amino)ethylidene)-5-(2-fluoro-6-methoxyphenyl)-1H-pyrrolo[2,3-c]pyridin-2(3H)-one], the inhibition at 1 µM was 87.4%, the inhibition at 10 µM is 85.1% and the IC50 is under 50 nM.

Consider `C/C(Nc1ncc(C)s1)=C1/C(=O)Nc2cnc(-c3cnccc3C)cc21` [Example 178, (Z)-5-(4-Methylpyridin-3-yl)-3-(1-((5-methylthiazol-2-yl)amino)ethylidene)-1H-pyrrolo[2,3-c]pyridin-2(3H)-one], for which the inhibition at 1 µM was 68%, the inhibition at 10 µM amounted to 77.8% and the IC50 was under 50 nM.

In the case of `C/C(Nc1ccn(CC(C)(C)O)n1)=C1/C(=O)Nc2cnc(-c3cnccc3C)cc21` [Example 104, (Z)-3-(1-((1-(2-Hydroxy-2-methylpropyl)-1H-pyrazol-3-yl)amino)ethylidene)-5-(4-methylpyridin-3-yl)-1H-pyrrolo[2,3-c]pyridin-2(3H)-one], the inhibition at 1 µM was 74.6%, the inhibition at 10 µM was 79.8% and the IC50 was under 50 nM.

In the case of `C/C(Nc1ccn(C(C)(C)C#N)n1)=C1/C(=O)Nc2cnc(-c3ccccc3C)cc21` [Example 98, (Z)-2-Methyl-2-(3-((1-(2-oxo-5-(o-tolyl)-1H-pyrrolo[2,3-c]pyridin-3(2H)-ylidene)ethyl)amino)-1H-pyrazol-1-yl)propanenitrile], the inhibition at 1 µM stood at 61%, the inhibition at 10 µM stood at 69% and the IC50 lay in the range of 50 to 100 nM.

Take `C/C(Nc1cc(C)n(CC(C)C)n1)=C1/C(=O)Nc2cnc(-c3cnccc3C)cc21` [Example 186, (Z)-3-(1-((1-Isobutyl-5-methyl-1H-pyrazol-3-yl)amino)ethylidene)-5-(4-methylpyridin-3-yl)-1H-pyrrolo[2,3-c]pyridin-2(3H)-one]: the inhibition at 1 µM turned out to be 70.9%, the inhibition at 10 µM stood at 72.2% and the IC50 was under 50 nM.

In the case of `C/C(Nc1cc(C)n([C@H](C)C#N)n1)=C1/C(=O)Nc2cnc(-c3cnccc3C)cc21` [Example 198, (R,Z)-2-(5-Methyl-3-((1-(5-(4-methylpyridin-3-yl)-2-oxo-1H-pyrrolo[2,3-c]pyridin-3(2H)-ylidene)ethyl)amino)-1H-pyrazol-1-yl)propanenitrile], the inhibition at 1 µM turned out to be 73.8%, the inhibition at 10 µM amounted to 71.1% and the IC50 was under 50 nM.

For the compound `C/C(Nc1cc(C)n(CCC(C)(C)O)n1)=C1/C(=O)Nc2cnc(-c3c(C)cccc3F)cc21` [Example 203, (Z)-5-(2-Fluoro-6-methylphenyl)-3-(1-((1-(3-hydroxy-3-methylbutyl)-5-methyl-1H-pyrazol-3-yl)amino)ethylidene)-1H-pyrrolo[2,3-c]pyridin-2(3H)-one], the inhibition at 1 µM amounted to 67.6%, the inhibition at 10 µM turned out to be 83% and the IC50 is under 50 nM.

For `C/C(Nc1cnn(C)c1)=C1/C(=O)Nc2cnc(-c3c(C)cccc3F)cc21` [Example 164, (Z)-5-(2-Fluoro-6-methylphenyl)-3-(1-((1-methyl-1H-pyrazol-4-yl)amino)ethylidene)-1H-pyrrolo[2,3-c]pyridin-2(3H)-one], the inhibition at 1 µM was 60.9%, the inhibition at 10 µM came to 75.2% and the IC50 lay in the range of 50 to 100 nM.

In the case of `CC/C(Nc1ccc(N2CCN(C)CC2)cc1)=C1/C(=O)Nc2ccc(-c3c(F)cccc3OC)cc21` [Example 9, (Z)-5-(2-Fluoro-6-methoxyphenyl)-3-(1-((4-(4-methylpiperazin-1-yl)phenyl)amino)propylidene)indolin-2-one], the inhibition at 1 µM was 84.9%, the inhibition at 10 µM stood at 84.4% and the IC50 was under 50 nM.

In the case of `C/C(Nc1ccn(C2CCOCC2)n1)=C1/C(=O)Nc2cnc(-c3cnccc3C)cc21` [Example 83, (Z)-5-(4-Methylpyridin-3-yl)-3-(1-((1-(tetrahydro-2H-pyran-4-yl)-1H-pyrazol-3-yl)amino)ethylidene)-1H-pyrrolo[2,3-c]pyridin-2(3H)-one], the inhibition at 1 µM was found to be 27.7% and the inhibition at 10 µM worked out at 43.5%.

For the compound `CC/C(Nc1cnn(C)c1)=C1/C(=O)Nc2ccc(-c3c(F)cccc3OC)cc21` [Example 17, (Z)-5-(2-Fluoro-6-methoxyphenyl)-3-(1-((1-methyl-1H-pyrazol-4-yl)amino)propylidene)indolin-2-one], the inhibition at 1 µM was 85.7%, the inhibition at 10 µM was 83.3% and the IC50 is under 50 nM.

For the compound `Cc1ccncc1-c1cc2c(cn1)NC(=O)/C2=C(\Nc1cnn(C)c1)C(C)C` [Example 48, (Z)-3-(2-Methyl-1-((1-methyl-1H-pyrazol-4-yl)amino)propylidene)-5-(4-methylpyridin-3-yl)-1H-pyrrolo[2,3-c]pyridin-2(3H)-one], the inhibition at 1 µM is 77.2%, the inhibition at 10 µM worked out at 84.8% and the IC50 lay within 50 to 100 nM.

Turning to `CC/C(Nc1cnn(C)c1)=C1/C(=O)Nc2cnc(-c3c(F)cccc3OC)cc21` [Example 32, (Z)-5-(2-Fluoro-6-methoxyphenyl)-3-(1-((1-methyl-1H-pyrazol-4-yl)amino)propylidene)-1H-pyrrolo[2,3-c]pyridin-2(3H)-one], the inhibition at 1 µM amounted to 90.3%, the inhibition at 10 µM is 100% and the IC50 is under 50 nM.

On to `CC(=O)N1CCC(n2cc(N/C(C)=C3\C(=O)Nc4cnc(-c5cnccc5C)cc43)cn2)CC1` [Example 90, (Z)-3-(1-((1-(1-Acetylpiperidin-4-yl)-1H-pyrazol-4-yl)amino)ethylidene)-5-(4-methylpyridin-3-yl)-1H-pyrrolo[2,3-c]pyridin-2(3H)-one], for which the inhibition at 1 µM was determined as 72.7%, the inhibition at 10 µM amounted to 75.6% and the IC50 is under 50 nM.

Broadly, the inhibition is the percentage by which the read-out fell short of the control. A word on the IC50: it is the concentration that gives 50% inhibition. Low readings indicate greater potency, high ones weaker potency.
